According to patent publication US20260137671A1, “PDK4 as a Cell-Aging Intervention Target and Its Use in Chemotherapy and Anticancer” (Shanghai Institute of Nutrition and Health, Chinese Academy …, priority 2022, published 2026):

Columns and labels:
[1] = system: PC3 cells xenografted together with PSC27 cells; assay: PC3/PSC27 xenograft, tumor end volume after chemotherapy and/or PDK4-IN; format: in vivo, SCID mice
Procedure: All experimental mouse experiments were carried out in strict accordance with the relevant regulations of the Institutional Animal Care and Use Committee (IACUC), Shanghai Institutes for Biological Sciences, Chinese Academy of Sciences. Immuno-deficient mice ICR SCID mice (body weight about 25 g) aged about 6 weeks were used for animal experiments related to the present disclosure. Stromal cells PSC27 and epithelial cells were mixed at a ratio of 1:4, and each graft contained 1.25×10^6 cells for tissue remodeling. The xenograft tumors were implanted into mice by subcutaneous transplantation, and the animals were euthanized 8 weeks after the end of the transplantation surgery. […] For pre-clinical chemotherapeutic studies, mice received subcutaneous implantation were given standard laboratory diets. […] The time points were on the first day of the third, fifth and seventh weeks, with a total of 3 cycles of treatment, and each cycle lasted for 2 weeks. After the course of treatment, mouse […] were collected for tumor measurement and histological analysis. […] The chemotherapy experiment ended at the end of the 8th week, and the mice were dissected immediately after sacrifice, and the xenograft tumors were collected and used for pathological system analysis. To closely mimic clinical conditions involving chemotherapeutic drugs, the inventors designed a preclinical regimen incorporating a genotoxic drug (MIT) and/or the PDK4 inhibitor (PDK4-IN) (FIG. 63).

[2] = system: mice with natural senescence; assay: PDK4-IN intervention in naturally aged mice: tissue senescence, physical function, serum markers; format: in vivo, C57BL/6J mice
Procedure: FIG. 83. Schematic design of 20-month-old C57BL/6J mice undergoing either placebo or PDK4-IN intervention.
All testing began on day 5 after the last placebo or drug treatment. Maximum walking speed was assessed using the accelerated RotaRod System (TSE System, Chesterfiled, MO). The mice were trained on the RotaRod for 3 days at speeds of 4, 6 and 8 r.p.m, lasted for 200 seconds on the 1st, 2nd and 3rd days. On the test day, the mice were placed on the RotaRod, and the test was performed starting at a speed of 4 r.p.m. The rotation speed was accelerated from 4 to 40 r.p.m at intervals of 5 minutes. When the mice fell off the RotaRod, the speed was recorded. The final results were averaged from 3 or 4 trials and normalized to baseline speed. The mice that had been trained within the previous two months were no longer trained.
Forelimb grip strength (N) was measured using a Grip Strength Meter (Columbus Instruments, Columbus, OH), and the results were averaged from more than 10 trials. For the hanging endurance test, the mice were placed on a 2 mm thick metal wire, while the later was 35 cm above a mat. The mice were only allowed to grasp the wire with their forelimbs, and the hang time was normalized to body weight and expressed as hang duration (sec)×body weight (g). The results were the average of 2 to 3 trials per mouse. Their daily activity and food intake were monitored for 24 h (12 hours of light and 12 hours of dark) by a Comprehensive Laboratory Animal Monitoring System (CLAMS). The CLAMS system was equipped with an Oxymax Open Circuit Calorimeter System (Columbus Instruments). For treadmill performance, the mice were acclimatized to run on an electric running machine (Columbus Instruments) at a 5° incline, for 3 days of training, lasted for 5 minutes each day, started at a speed of 5 m/min for 2 minutes, then accelerated to 7 m/min for 2 minutes, then 9 m/min for 1 minute. On the day of the test, the mice ran on the treadmill at an initial speed of 5 m/min for 2 min, and then the speed increased by 2 m/min every 2 min until the mice were exhausted. Fatigue was defined as the inability of mice to return to the treadmill despite mild electrical and mechanical stimulation. The distance was recorded after the test, and the total work (KJ) was calculated with the following formula: mass (kg)×g (9.8 m/s2)×distance (m)×sin (5°).
With the increasing global senescent trend in recent years, drugs that can effectively alleviate the senescent process have become a common interest among scientists and pharmaceutical companies worldwide. The inventors queried whether manipulation of PDK4 activities can control various senescence-associated phenotypes. Therefore, the inventors chose to treat normal 20-month-old wild-type mice with PDK4-IN (PDK4-IN 10 mg/kg via intraperitoneal injection once every 2 weeks) for 4 months, after which physical function or physical ability was experimentally determined in mice with natural senescence (FIG. 83).

[3] = system: tumor tissues of mice (PC3/PSC27 xenografts); assay: In vivo cellular senescence and SASP expression in xenograft tumors (LCM transcripts, SA-β-Gal staining); set-up: species or system SCID mice
Source text: (§1) FIG. 66. Transcript assessment of several canonical SASP factors expressed in stromal cells isolated from tumors in SCID mice. LCM isolation, total RNA preparation and expression assays on tissues from animals with simultaneously implanted stromal cells and cancer cells. Note that the group measured as of the lowest value was used as normalization baseline per factor.
as §1, with “67.” for “66.”, “individual” for “several”, “factors (AREG), aging markers (p16/p21) and PDK4” for “factors”
FIG. 68. Representative IHC images of SA-β-Gal staining chromatograms from tissues isolated from animals subjected to placebo or drug treatments. Scale bar, 100 μm. Right, Comparative statistical analysis of SA-β-Gal staining for tissues in mice mentioned above.
Senescence-associated β-galactosidase (SA-β-Gal) staining was performed following a previously reported procedure (Debacq-Chainiaux et al., 2009). Briefly, cells in culture dishes were washed with PBS and fixed at room temperature. Cells were fixed in 2% formaldehyde and 0.2% glutaraldehyde for 3 minutes. SA-β-Gal was used for staining with freshly prepared staining solution overnight at 37° C. Images were taken on the next day and the percentage of positive cells per unit area was calculated.
For pre-clinical chemotherapeutic studies, mice received subcutaneous implantation were given standard laboratory diets. […] The time points were on the first day of the third, fifth and seventh weeks, with a total of 3 cycles of treatment, and each cycle lasted for 2 weeks. After the course of treatment, mouse […] were collected for tumor measurement and histological analysis. […]

[4] = PDK4-IN 10.0 mg/kg combined with MIT 0.2 mg/kg i.p., end of 8-week regimen
[5] = 20-month-old mice, PDK4-IN 10 mg/kg i.p. once every 2 weeks for 4 months

O=C1c2ccccc2C(=O)c2c1cccc2-c1cnn(C2CCNCC2)c1 [PDK4-IN]
further decline of tumor volume over MIT alone [1, 4]: 35.5% | total tumor shrinkage compared to the control group [1, 4]: 72.6% | effect on tumor volume as single agent ([1]; PDK4-IN alone, 10.0 mg/kg i.p.): did not provide noticeable benefits | SA-β-gal positivity in liver, lung, prostate and myocardial tissues of aged animals [2, 5]: partially reversed | age-dependent expansion of alveoli [2, 5]: effectively controlled | grip strength [2, 5]: significantly improved | motor skills [2, 5]: significantly improved | serum lactate levels ([2]; aged animals receiving PDK4-IN treatment): significant reduction | age-related elevation of serum alanine aminotransferase (ALT) ([2]; aged mice treated with PDK4-IN): significantly avoided these changes | age-related elevation of serum aspartate aminotransferase (AST) ([2]; aged mice treated with PDK4-IN): significantly avoided these changes | age-related elevation of serum lactate dehydrogenase (LDH) ([2]; aged mice treated with PDK4-IN): significantly avoided these changes | body weight ([2]; aged mice treated with PDK4-IN): essentially unaffected | food intake ([2]; aged mice treated with PDK4-IN): essentially unaffected | SA-β-gal positivity in tumor tissues ([3]; histological staining, FIG. 68): neither induced senescence nor inhibited senescence | cellular senescence / SASP factor and senescence marker expression in vivo ([3]; single agent or in combination with MIT, FIGS. 66-67): neither induced nor affected cellular senescence
